According to US8063034B2, “Oxadiazole derivatives and thiadiazole derivatives having neovascularization inhibitory activity” (Santen Pharmaceutical Co., Ltd., priority 2007, dated 2011):
Where a name gives a salt, the structure may show the parent alone.

Target: T1, tyrosine kinase (KDR) (Homo sapiens, UniProt P35968)
T1 construct: purchased CARNABIO SCIENCE Co. Ltd. JAPAN
Test: Evaluation test of inhibitory effect of tyrosine kinase (KDR) activity, ELISA method (CARNABIO SCIENCE kit)
Type: biochemical
Settings: 4 mg/L test compound, 1 μM ATP, substrate 250 nM, 1 hour at room temperature, absorbance 450 nm; read-out: tyrosine kinase inhibition rates (% inhibition)
Method: In order to find usefulness of the present compounds, a test of inhibitory effect of tyrosine kinase (KDR) activity was conducted on the present compounds using an evaluation system for kinase (KDR) inhibitory activity by way of the ELISA method which is the method for evaluating neovascularization inhibition effect of drugs, and the neovascularization inhibition effects were evaluated.
Evaluation Test of Inhibitory Effect of Tyrosine Kinase (KDR) Activity
As one of the widely-used methods of evaluating inhibitory effect of tyrosine kinase (KDR) activity by drugs, the ELISA method has been reported. The inhibitory effect of tyrosine kinase (KDR) activity of each of the present compounds was evaluated using the commercially available kit (purchased from CARNABIO SCIENCE Co. Ltd. JAPAN) for evaluating inhibitory effect of tyrosine kinase (KDR) activity.
(Preparation of Test Compound Solution)
Each test compound (2 mg) were dissolved in dimethyl sulfoxide (hereinafter abbreviated as DMSO), and the 2 mg/ml stock solution were prepared. Each obtained solution was diluted with 8 μL of DMSO. Each solution (0.4 mg/ml compound) was diluted 25 times with assay buffer to give the test compound solution. For the vehicle, 4% DMSO-Assay Buffer solution was prepared.
(Preparation of ATP/Substrate Solution)
Thaw commercially available ATP/Substrate (purchased from CARNABIO SCIENCE Co. Ltd. JAPAN), then 250 μL of it was added to 1 mL of assay buffer to give ATP/substrate solution. ATP/substrate solution was kept on ice before use.
(Preparation of Enzyme Solution)
7 μL of commercially available tyrosine kinase (purchased from CARNABIO SCIENCE Co. Ltd. JAPAN) was added to 2.793 mL of assay buffer to give enzyme solution. Enzyme solution was kept on ice before use.
(Preparation of Blocking Buffer)
BSA (Sigma, A-7030) was dissolved with wash buffer (50 mM Tris-HCl (pH7.5), 150 mM NaCl, 0.2% Tween-20) to give x100 BSA solution, and the solution was kept at −80° C. Thaw 400 μL of x100 BSA solution before use, it was added to 40 mL of wash buffer to give blocking buffer.
(Preparation of Detection Mixture)
40 μL of commercially available HRP-conjugated antibody (purchased from CARNABIO SCIENCE Co. Ltd. JAPAN) was added to 12 mL of blocking buffer to give detection mixture.
(Method of Test and Method of Measurement)
1) Add 10 μL of each test compound solution, 10 μL of ATP/substrate solution and 20 μL of enzyme solution to each well of ELISA plate (streptavidin-coated 96-well plate, PerkinElmer, 4009-0010). Incubate for 1 hour at room temperature (4 mg/L test compound solution, 15 mM Tris-HCl (pH7.5), 0.01% Tween 20, 2 mM DTT, concentration of substrate: 250 nM, 1 μM ATP, 5 mM Mg). For the vehicle, the above mentioned 4% DMSO-assay buffer solution was added instead of test compound solution.
2) Aspirate each well and wash with wash buffer, repeating the process three times for four washes.
3) Add 200 μL of blocking buffer to each well and cover the plate and incubate for 30 minutes.
4) Aspirate each well, add 100 μL of detection mixture to each well and incubate the plate for 30 minutes.
5) Aspirate each well and wash with wash buffer 4 times.
6) Add 100 μL of color reagent to each well. Incubate for 5 minutes and then add 0.1 M H2SO4 to each well.
7) Measure the absorbance of each well, using a plate reader set to […].
(Calculation of Kinase Inhibition Rate)
Rate of the reaction positive control well with kinase was considered 0% inhibition, rate of the reaction negative control well with assay buffer instead of kinase was considered 100% inhibition, and so the inhibition rates of test compound well were calculated based on the absorbance of them.
A: Absorbance of the reaction positive control well
B: Absorbance of the reaction negative control well
C: Absorbance of the test compound well
tyrosine kinase inhibition rates (%)=100 [1-(C-A)/(B-A)]

T1 sequence (P35968 790-1356 limits assumed): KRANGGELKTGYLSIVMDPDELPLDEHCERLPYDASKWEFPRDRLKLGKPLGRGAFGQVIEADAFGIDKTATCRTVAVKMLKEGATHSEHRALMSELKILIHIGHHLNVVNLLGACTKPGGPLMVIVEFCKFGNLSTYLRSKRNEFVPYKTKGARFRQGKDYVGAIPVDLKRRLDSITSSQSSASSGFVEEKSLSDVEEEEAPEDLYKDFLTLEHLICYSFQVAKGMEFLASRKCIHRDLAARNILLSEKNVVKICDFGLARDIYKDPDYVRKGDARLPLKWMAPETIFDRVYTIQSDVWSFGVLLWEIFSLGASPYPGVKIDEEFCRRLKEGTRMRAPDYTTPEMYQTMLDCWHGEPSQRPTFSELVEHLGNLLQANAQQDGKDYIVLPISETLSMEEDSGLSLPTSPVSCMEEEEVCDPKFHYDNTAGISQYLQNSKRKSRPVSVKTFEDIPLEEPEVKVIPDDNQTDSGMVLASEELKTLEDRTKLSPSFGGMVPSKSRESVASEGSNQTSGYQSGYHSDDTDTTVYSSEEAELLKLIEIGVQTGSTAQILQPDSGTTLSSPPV

| inhibition at 4 µg/mL | SMILES |
| --- | --- |
| 88% | c1ccc(Nc2nnc(-c3ccccc3SCc3ccnc4ccccc34)o2)cc1 [Compound 1-40, N-Phenyl-5-(2-(quinolin-4-yl)methylthiophenyl)-1,3,4-oxadiazol-2-amine] |
| 86% | CC(C)(C)c1ccc(Nc2nnc(-c3ccccc3SCc3ccncc3)o2)cc1 [Compound 1-34, N-(4-t-Butylphenyl)-5-(2-(pyridin-4-yl)methylthiophenyl)-1,3,4-oxadiazol-2-amine] |
| 98% | CC(=O)Nc1cc(CSc2ccccc2-c2nnc(Nc3cccc(C(F)(F)F)c3)o2)ccn1 [Compound 1-46, 5-(2-(2-Acetamidopyridin-4-yl)methylthiophenyl)-N-(3-trifluoromethylphenyl)-1,3,4-oxadiazol-2-amine] |
| 68% | Clc1ccc(Nc2nnc(-c3ccccc3SCc3ccncc3)s2)cc1 [Compound 1-36, N-(4-Chlorophenyl)-5-(2-(pyridin-4-yl)methylthiophenyl)-1,3,4-thiadiazol-2-amine] |
| 75% | Nc1nccc(CSc2ccccc2-c2nnc(Nc3ccccc3)o2)n1 [Compound 1-47, 5-(2-(2-Aminopyrimidin-4-yl)methylthiophenyl)-N-phenyl-1,3,4-oxadiazol-2-amine] |
| 82% | Clc1ccc(Nc2nnc(-c3ccccc3SCc3ccncc3)o2)cc1 [Compound 1-41, N-(4-Chlorophenyl)-5-(2-(pyridin-4-yl)methylthiophenyl)-1,3,4-oxadiazol-2-amine] |
| 86% | Nc1cc(CSc2ncccc2-c2nnc(Nc3ccc(Cl)cc3)o2)ccn1 [Compound 1-91, 5-(2-(2-Aminopyridin-4-yl)methylthiopyridin-3-yl)-N-(4-chlorophenyl)-1,3,4-oxadiazol-2-amine hydrochloride] |
| 58% | c1ccc(Nc2nnc(-c3ccccc3SCc3ccncc3)s2)cc1 [Compound 1-35, N-Phenyl-5-(2-(pyridin-4-yl)methylthiophenyl)-1,3,4-thiadiazol-2-amine] |
| 43% | CC(C)(C)c1ccc(Nc2nnc(-c3ccccc3SCc3ccncc3)s2)cc1 [Compound 1-39, N-(4-t-Butylphenyl)-5-(2-(pyridin-4-yl)methylthiophenyl)-1,3,4-thiadiazol-2-amine] |
| 91% | CC(=O)Nc1cc(CSc2ccccc2-c2nnc(Nc3ccc(Cl)cc3)o2)ccn1 [Compound 1-45] |
| 53% | FC(F)(F)c1ccc(Nc2nnc(-c3ccccc3SCc3ccncc3)s2)cc1 [Compound 1-38, 5-(2-(Pyridin-4-yl)methylthiophenyl)-N-(4-trifluoromethylphenyl)-1,3,4-thiadiazole-2-amine] |
| 98% | Nc1cc(CSc2ncccc2-c2nnc(Nc3cccc(C(F)(F)F)c3)o2)ccn1 [Compound 1-92, 5-(2-(2-Aminopyridin-4-yl)methylthiopyridin-3-yl)-N-(3-trifluoromethylphenyl)-1,3,4-oxadiazol-2-amine hydrochloride] |
| 84% | Clc1cccc(Nc2nnc(-c3ccccc3SCc3ccncc3)s2)c1 [Compound 1-37, N-(3-Chlorophenyl)-5-(2-(pyridin-4-yl)methylthiophenyl)-1,3,4-thiadiazol-2-amine] |
| 95% | FC(F)(F)c1cccc(Nc2nnc(-c3ccccc3SCc3ccncc3)o2)c1 [Compound 1-33, 5-(2-(Pyridin-4-yl)methylthiophenyl)-N-(3-trifluoromethylphenyl)-1,3,4-oxadiazol-2-amine] |

The next lines start with the compound.

| SMILES | inhibition at 4 µg/mL |
| --- | --- |
| c1ccc(Nc2nnc(-c3ccccc3OCc3ccncc3)o2)cc1 [Compound 1-1, N-Phenyl-5-(2-(pyridin-4-yl)methoxyphenyl)-1,3,4-oxadiazol-2-amine] | 55% |
| CNC(=O)c1cc(CSc2ncccc2-c2nnc(Nc3cccc(C(F)(F)F)c3)o2)ccn1 [Compound 1-21, 5-(2-(2-Methylaminocarbonylpyridin-4-yl)methylthiopyridin-3-yl)-N-(3-trifluoromethylphenyl)-1,3,4-oxadiazol-2-amine] | 93% |
| CC(=O)Nc1cc(COc2ccccc2-c2nnc(Nc3ccccc3)o2)ccn1 [Compound 1-6, 5-(2-(2-Acetamidopyridin-4-yl)methoxyphenyl)-N-phenyl-1,3,4-oxadiazol-2-amine] | 65% |
| CC(=O)Nc1cc(CSc2ncccc2-c2nnc(Nc3ccc(Cl)cc3)o2)ccn1 [Compound 1-17, 5-(2-(2-Acetamidopyridin-4-yl)methylthiopyridin-3-yl)-N-(4-chlorophenyl)-1,3,4-oxadiazol-2-amine] | 94% |
| Clc1ccc(Nc2nnc(-c3cccnc3SCc3ccnc4ccccc34)o2)cc1 [Compound 1-14, N-(4-Chlorophenyl)-5-(2-(quinolin-4-yl)methylthiopyridin-3-yl)-1,3,4-oxadiazol-2-amine] | 90% |
| FC(F)(F)c1cccc(Nc2nnc(-c3ccccc3OCc3ccncc3)o2)c1 [Compound 1-3, 5-(2-(Pyridin-4-yl)methoxyphenyl)-N-(3-trifluoromethylphenyl)-1,3,4-oxadiazol-2-amine] | 80% |
| CC(=O)Nc1cc(CSc2ncccc2-c2nnc(Nc3ccccc3)o2)ccn1 [Compound 1-16, 5-(2-(2-Acetamidopyridin-4-yl)methylthiopyridin-3-yl)-N-phenyl-1,3,4-oxadiazol-2-amine] | 95% |
| c1ccc(Nc2nnc(-c3cccnc3SCc3ccnc4ccccc34)o2)cc1 [Compound 1-13, N-Phenyl-5-(2-(quinolin-4-yl)methylthiopyridin-3-yl)-1,3,4-oxadiazol-2-amine] | 72% |
| c1ccc(Nc2nnc(-c3ccccc3OCc3ccnc4ccccc34)o2)cc1 [Compound 1-4, N-Phenyl-5-(2-(quinolin-4-yl)methoxyphenyl)-1,3,4-oxadiazol-2-amine] | 75% |
| c1ccc(Nc2nnc(-c3ccccc3SCc3ccncc3)o2)cc1 [Compound 1-32, N-Phenyl-5-(2-(pyridin-4-yl)methylthiophenyl)-1,3,4-oxadiazol-2-amine] | 55% |
| CNC(=O)c1cc(CSc2ncccc2-c2nnc(Nc3ccc(Cl)cc3)o2)ccn1 [Compound 1-20, N-(4-Chlorophenyl)-5-(2-(2-methylaminocarbonylpyridin-4-yl)methylthiopyridin-3-yl)-1,3,4-oxadiazol-2-amine] | 86% |
| CC(C)(C)OC(=O)Nc1cc(CSc2ncccc2-c2nnc(Nc3ccccc3)o2)ccn1 [Compound 1-7, 5-(2-(2-t-Butoxycarbonylaminopyridin-4-yl)methylthiopyridin-3-yl)-N-phenyl-1,3,4-oxadiazol-2-amine] | 60% |
| CC(=O)Nc1cc(CSc2ncccc2-c2nnc(Nc3cccc(C(F)(F)F)c3)o2)ccn1 [Compound 1-18, 5-(2-(2-Acetamidopyridin-4-yl)methylthiopyridin-3-yl)-N-(3-trifluoromethylphenyl)-1,3,4-oxadiazol-2-amine] | 99% |
| c1ccc(Nc2nnc(-c3cccnc3SCc3ccncc3)o2)cc1 [Compound 1-10, N-Phenyl-5-(2-(pyridin-4-yl)methylthiopyridin-3-yl)-1,3,4-oxadiazol-2-amine] | 76% |
